Experiments:
Assay in all cases: Comparison of labeling of Ara-N3 and KDO-N3
Type in all cases: cell-based, human
Details in all cases: same conditions as in example 2
HeLa = tested on: HeLa
Raw = tested on: Raw
Macrophages = tested on: Macrophages

Measured: labelling of cells (fluorescence intensity)

[N-]=[N+]=NC[C@@H](O)[C@@H](O)[C@H](O)[C@H](O)CC(=O)C(=O)O [KDO-N3, 8-azido-3,8-dideoxy-D-manno-octulosonic acid]
not labelled: all assays above

Reference: US12517131B2, “Methods for labeling eukaryotic cells from a multicellular organism as well as for treating and/or diagnosing a cancer using modified monosaccharide compounds” (DIAMIDEX, priority 2019, dated 2026)
